# According to patent US6958355B2, “Materials and methods for the treatment of diabetes, hyperlipidemia, hypercholesterolemia, and atherosclerosis” (ARYx Therapeutics, Inc., priority 2000, dated 2005):
# Test system: NIDDM KK-A^y male mice
# Assay: Activity on serum glucose and insulin levels in NIDDM KK-A^y male mice
# Type: in vivo
# Conditions: percent reduction relative to pre-treatment values, 10 mg/kg orally, twice a day, 5 consecutive days, blood sampled 90 minutes after the last dose
# Excerpt: Representative compounds were chosen and evaluated for activity on serum glucose and insulin levels in non-insulin dependent diabetic mellitus (NIDDM) KK-A^y male mice. Post-treatment data for each group were transferred to a percentage of pretreatment values and unpaired Student's t test was used for comparison between vehicle and test substance treated groups. […] The results are presented in Table XXI and in FIGS. 19 and 20.
# Activity in NIDDM KK-A^y male mice. Non-insulin dependent diabetic mellitus male mice, weighing 50+/−5 g (9-10 weeks of age) were used. […] The test compounds 105, 115, and 155, and the positive control compound troglitazone were suspended in a 1% carboxymethylcellulose preparation and were given orally at a dose of 10 mg/kg, twice a day, for 5 consecutive days. Blood sampling was performed before the first dose and then 90 minutes after the last dose. Serum glucose and insulin levels were measured.
smiles,measurement,value
"Cc1c(C)c2c(c(C)c1O)CCC(C)(COc1ccc(CC3SC(=O)NC3=O)cc1)O2 (centres unmarked) [Troglitazone, troglitazone]",Serum Glucose (%),35%
same,Serum Insulin (%),15%
